# Measurements as given in patent US20200055817A1 (AbbVie Deutschland GmbH & Co. KG, priority 2016, published 2020).
# Experiments:
# Format in all cases: cell-based
# [1] = biological target: T1, human EDG1 (S1PR1) receptor (Homo sapiens, UniProt P21453); assay: Aequorin assay, agonist potency, CHO-A21-Edg1#17 cells; details: agonist mode, aequorin luminescence; read-out: S1P1 EC50
# T1 construct: expressed in transfected cells; host or cells: CHO-A21-Edg1#17 (CHO clone co-expressing mitochondrial aequorin and chimaeric Gaqi5)
# T1 sequence (P21453 whole entry): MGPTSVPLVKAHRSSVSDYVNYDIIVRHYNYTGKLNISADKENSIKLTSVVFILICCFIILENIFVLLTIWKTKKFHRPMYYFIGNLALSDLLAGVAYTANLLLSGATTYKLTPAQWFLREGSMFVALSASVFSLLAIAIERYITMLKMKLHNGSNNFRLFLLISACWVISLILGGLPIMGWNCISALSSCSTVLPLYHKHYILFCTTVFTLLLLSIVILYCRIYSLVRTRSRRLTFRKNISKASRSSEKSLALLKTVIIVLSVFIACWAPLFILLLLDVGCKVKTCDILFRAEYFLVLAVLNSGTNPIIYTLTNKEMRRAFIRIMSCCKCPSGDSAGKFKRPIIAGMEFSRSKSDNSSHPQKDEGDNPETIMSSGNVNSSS
# Outline: (§1)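 CHO cells coexpressing receptor, mitochondrial aequorin and Gαqi5 (S1P3 pool: GNA16) were loaded overnight at RT with 5 μM coelenterazine h in 0.1% fatty-acid-free BSA buffer. Cells were injected onto compound, luminescence recorded 90 s and integrated, normalised to digitonin or 20 μM ATP; sigmoidal fit.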
# [2] = biological target: T2, human EDG8 (S1PR5) receptor (Homo sapiens, UniProt Q9H228); assay: Aequorin assay, agonist potency, CHO-A21-EDG8#12 cells; details: agonist mode, aequorin luminescence; read-out: S1P5 EC50 range #
# T2 construct: carries the transgenes human EDG8 (S1PR5) receptor (Acession number NP_110387.1); expressed in transfected cells; host or cells: CHO-A21-EDG8#12 (CHO clone co-expressing mitochondrial aequorin and chimaeric Gaqi5)
# T2 sequence (Q9H228 whole entry): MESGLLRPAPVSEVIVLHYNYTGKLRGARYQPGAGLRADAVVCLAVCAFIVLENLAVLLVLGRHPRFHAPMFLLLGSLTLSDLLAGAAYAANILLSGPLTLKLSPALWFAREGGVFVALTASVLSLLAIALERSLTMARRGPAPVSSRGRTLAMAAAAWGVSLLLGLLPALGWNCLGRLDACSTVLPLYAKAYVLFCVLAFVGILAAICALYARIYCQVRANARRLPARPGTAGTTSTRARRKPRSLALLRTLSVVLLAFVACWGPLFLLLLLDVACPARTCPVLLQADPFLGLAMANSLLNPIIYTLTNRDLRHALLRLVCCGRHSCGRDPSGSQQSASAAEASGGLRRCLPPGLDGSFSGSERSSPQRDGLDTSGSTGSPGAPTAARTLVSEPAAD
# Outline: as §1
# S1P4 = biological target: T3, S1P4 (Homo sapiens, UniProt O95977); assay: Aequorin assay, agonist potency, S1P4; details: agonist mode, aequorin luminescence
# T3 sequence (O95977 1-384): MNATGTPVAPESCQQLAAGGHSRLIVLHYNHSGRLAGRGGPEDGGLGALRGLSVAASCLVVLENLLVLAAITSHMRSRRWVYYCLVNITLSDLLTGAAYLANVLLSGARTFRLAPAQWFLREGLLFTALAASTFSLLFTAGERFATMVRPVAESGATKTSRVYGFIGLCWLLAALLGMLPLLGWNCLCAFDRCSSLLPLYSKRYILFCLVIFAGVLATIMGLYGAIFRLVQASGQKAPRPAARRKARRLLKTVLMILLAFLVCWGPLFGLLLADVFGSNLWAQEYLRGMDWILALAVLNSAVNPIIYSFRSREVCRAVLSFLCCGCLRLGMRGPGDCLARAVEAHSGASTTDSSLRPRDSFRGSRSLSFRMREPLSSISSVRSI
# Outline: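 Aequorin luminescence read over 90 s after adding coelenterazine h–loaded cells (5 μM, overnight, RT) to test compound in phenol red-free DMEM/F12 buffer containing 0.1% fatty acid-free BSA. Responses integrated, scaled to the 100% signal from 100 μM digitonin or 20 μM ATP, and fitted to a sigmoidal dose-response model.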
SMILES,EC50 [1] [nM],EC50 [2] [nM],EC50 (S1P4) [nM]
"O=C(O)CN1CC2(Cc3ccc(OCc4cccc5c4OCC5)cc3C2)C1 [Example 72, 2-(5′-((2,3-dihydrobenzofuran-7-yl)methoxy)-1′,3′-dihydrospiro[azetidine-3,2′-inden]-1-yl)acetic acid]",> 1000,100 to 1000,< 1000
"CCCCc1ccc(COc2ccc3c(c2)CC2(C3)CN(CC(=O)O)C2)c(Cl)c1 [Example 3, 2-(5′-((4-butyl-2-chlorobenzyl)oxy)-1′,3′-dihydrospiro[azetidine-3,2′-inden]-1-yl)acetic acid]",> 1000,1000 to 10000,< 1000
"O=C(O)CN1CC2(Cc3ccc(OCCc4ccccc4Cl)cc3C2)C1 [Example 61, 2-(5′-(2-chlorophenethoxy)-1′,3′-dihydrospiro[azetidine-3,2′-inden]-1-yl)acetic acid]",> 1000,10 to 100,< 1000
"O=C(O)C1CC(N2CC3(Cc4ccc(OCc5c(F)cccc5C5CC5)cc4C3)C2)C1 (stereo not drawn) [Example 87, 3-(5′-((2-cyclopropyl-6-fluorobenzyl)oxy)-1′,3′-dihydrospiro[azetidine-3,2′-inden]-1-yl)cyclobutanecarboxylic acid]",> 1000,≤ 10,< 1000
"O=C(O)C1(CN2CC3(Cc4ccc(OCc5c(Cl)cccc5C(F)(F)F)cc4C3)C2)CC1 [Example 47, 1-((5′-((2-chloro-6-(trifluoromethyl)benzyl)oxy)-1′,3′-dihydrospiro[azetidine-3,2′-inden]-1-yl)methyl)cyclopropanecarboxylic acid Compound with 2,2,2-trifluoroacetic acid (1:1)]",> 1000,≤ 10,< 1000
"Cc1cccc(F)c1COc1ccc2c(c1)CC1(C2)CN(CC2(C(=O)O)CC2)C1 [Example 42, 1-((5′-((2-fluoro-6-methylbenzyl)oxy)-1′,3′-dihydrospiro[azetidine-3,2′-inden]-1-yl)methyl)cyclopropanecarboxylic acid compound with 2,2,2-trifluoroacetic acid (1:1)]",> 1000,100 to 1000,< 1000
"COc1cccc(F)c1COc1ccc2c(c1)CC1(C2)CN(CC2(C(=O)O)CC2)C1 [Example 30, 1-((5′-((2-fluoro-6-methoxybenzyl)oxy)-1′,3′-dihydrospiro[azetidine-3,2′-inden]-1-yl)methyl)cyclopropanecarboxylic acid compound with 2,2,2-trifluoroacetic acid (1:1)]",> 1000,1000 to 10000,> 1000
"O=C(O)CN1CC2(Cc3ccc(OCc4cccc5c4CCC5)cc3C2)C1 [Example 74, 2-(5′-((2,3-dihydro-1H-inden-4-yl)methoxy)-1′,3′-dihydrospiro[azetidine-3,2′-inden]-1-yl)acetic acid]",> 1000,≤ 10,< 1000
"O=C(O)C1CC(N2CC3(Cc4ccc(OCc5c(Cl)cccc5C5CC5)cc4C3)C2)C1 (stereo not drawn) [Example 91, 3-(5′-((2-chloro-6-cyclopropylbenzyl)oxy)-1′,3′-dihydrospiro[azetidine-3,2′-inden]-1-yl)cyclobutanecarboxylic acid]",< 1000,≤ 10,< 1000
"COc1ccc(COc2ccc3c(c2)CC2(C3)CN(CC3(C(=O)O)CC3)C2)c(Cl)c1 [Example 40, 1-((5′-((2-chloro-4-methoxybenzyl)oxy)-1′,3′-dihydrospiro[azetidine-3,2′-inden]-1-yl)methyl)cyclopropanecarboxylic acid]",> 1000,1000 to 10000,< 1000
"O=C(O)[C@H]1C[C@@H](N2CC3(Cc4ccc(OCc5cc(Cl)ccc5Cl)cc4C3)C2)C1 [Example 90, (1s,3s)-3-(5′-((2,5-dichlorobenzyl)oxy)-1′,3′-dihydrospiro[azetidine-3,2′-inden]-1-yl)cyclobutanecarboxylic acid]",> 1000,100 to 1000,< 1000

# The next lines start with the values.
EC50 [1] [nM],EC50 [2] [nM],EC50 (S1P4) [nM],SMILES
< 1000,10 to 100,> 1000,"CC(C)Oc1ccc(C#Cc2ccc3c(c2)CC2(C3)CN(C3CC(C(=O)O)C3)C2)cn1 (stereo not drawn) [Example 96, 3-(5′-((6-isopropoxypyridin-3-yl)ethynyl)-1′,3′-dihydrospiro[azetidine-3,2′-inden]-1-yl)cyclobutanecarboxylic acid]"
> 1000,1000 to 10000,< 1000,"O=C(O)C1CC(N2CC3(Cc4ccc(OCCc5ccccc5C(F)(F)F)cc4C3)C2)C1 (stereo not drawn) [Example 105, 3-(5′-(2-(trifluoromethyl)phenethoxy)-1′,3′-dihydrospiro[azetidine-3,2′-inden]-1-yl)cyclobutanecarboxylic acid]"
> 1000,100 to 1000,< 1000,"O=C(O)C1(CN2CC3(Cc4ccc(OCC5CCCCC5)cc4C3)C2)CC1 [Example 126, 1-((5′-(cyclohexylmethoxy)-1′,3′-dihydrospiro[azetidine-3,2′-inden]-1-yl)methyl)cyclopropanecarboxylic acid]"
< 1000,≤ 10,< 1000,"O=C(O)C1CC(N2CC3(Cc4ccc(OC5CCc6cccc(Cl)c65)cc4C3)C2)C1 (stereo not drawn) [Example 106, 3-(5′-((7-chloro-2,3-dihydro-1H-inden-1-yl)oxy)-1′,3′-dihydrospiro[azetidine-3,2′-inden]-1-yl)cyclobutanecarboxylic acid]"
> 1000,1000 to 10000,< 1000,"O=C(O)C1(CN2CC3(Cc4ccc(OC5CCc6ccccc65)cc4C3)C2)CC1 (stereo not drawn) [Example 130, 1-((5′-((2,3-dihydro-1H-inden-1-yl)oxy)-1′,3′-dihydrospiro[azetidine-3,2′-inden]-1-yl)methyl)cyclopropanecarboxylic acid]"
> 1000,1000 to 10000,> 1000,"COc1ccc(COc2ccc3c(c2)CC2(C3)CN(CC3(C(=O)O)CC3)C2)c(C)n1 [Example 121, 1-((5′-((6-methoxy-2-methylpyridin-3-yl)methoxy)-1′,3′-dihydrospiro[azetidine-3,2′-inden]-1-yl)methyl)cyclopropanecarboxylic acid]"
> 1000,≤ 10,< 1000,"CC1CCC(C#Cc2ccc3c(c2)CC2(C3)CN(CC3(C(=O)O)CC3)C2)CC1 (mixture of isomers) [Example 115, 1-((5′-((4-methylcyclohexyl)ethynyl)-1′,3′-dihydrospiro[azetidine-3,2′-inden]-1-yl)methyl)cyclopropanecarboxylic acid]"
> 1000,1000 to 10000,< 1000,"O=C(O)C1(CN2CC3(Cc4ccc(OCCc5cccc(F)c5)cc4C3)C2)CC1 [Example 148, 1-((5′-(3-fluorophenethoxy)-1′,3′-dihydrospiro[azetidine-3,2′-inden]-1-yl)methyl)cyclopropanecarboxylic acid]"
> 1000,1000 to 10000,< 1000,"O=C(O)C1(CN2CC3(Cc4ccc(OCCC5CCCCC5)cc4C3)C2)CC1 [Example 132, 1-((5′-(2-cyclohexylethoxy)-1′,3′-dihydrospiro[azetidine-3,2′-inden]-1-yl)methyl)cyclopropanecarboxylic acid]"
> 1000,1000 to 10000,< 1000,"Cc1ccccc1COc1ccc2c(c1)CC1(C2)CN(CC2(C(=O)O)CC2)C1 [Example 138, 1-((5′-((2-methylbenzyl)oxy)-1′,3′-dihydrospiro[azetidine-3,2′-inden]-1-yl)methyl)cyclopropanecarboxylic acid]"
< 1000,≤ 10,< 1000,"CCc1cccc(Cl)c1COc1ccc2c(c1)OC1(C2)CN(CC(=O)O)C1 [Example 158, 2-(6′-((2-chloro-6-ethylbenzyl)oxy)-3′H-spiro[azetidine-3,2′-benzofuran]-1-yl)acetic acid]"
> 1000,1000 to 10000,> 1000,"O=C(O)C1(CN2CC3(Cc4ccc(OCc5ccccc5F)cc4C3)C2)CC1 [Example 140, 1-((5′-((2-fluorobenzyl)oxy)-1′,3′-dihydrospiro[azetidine-3,2′-inden]-1-yl)methyl)cyclopropanecarboxylic acid]"
> 1000,≤ 10,< 1000,"CCc1cccc(Cl)c1COc1ccc2c(c1)OC1(C2)CN(CC2(C(=O)O)CC2)C1 [Example 156, 1-((6′-((2-chloro-6-ethylbenzyl)oxy)-3′H-spiro[azetidine-3,2′-benzofuran]-1-yl)methyl)cyclopropanecarboxylic acid]"
